In patent US11612586B2, “Indole regulation of antigen presenting cells” (THE TEXAS A&M UNIVERSITY SYSTEM, priority 2016, dated 2023):

How the values were obtained:
Format in all cases: cell-based, mouse
[1] = tested on: CCR9; assay: CCR9 surface expression on BMDCs; settings: BMDCs cultured from day 3 with indole (1 mM) or retinoic acid (1 μM), day 7
Description: (§1) FIGS. 12A and 12B graphically illustrate that indole induces CCR9 and B220 on DCs. BMDCs were cultured in the presence of indole (1 mM), retinoic acid (1 μM), or DMF solvent control from day 3. On day 7, DCs were surface stained for expression of CCR9 and B220 and analyzed by flow cytometry. […] Mean of three independent experiments. * indicates p<0.05 for one-way ANOVA followed by Dunnett's post-test.
Dendritic cell subsets bear numerous surface antigens that regulate their migration and localization. Because indole is produced in the gut and appears to induce anti-inflammatory properties in DCs (as described above), it was hypothesized that indole might affect migration and retention in mucosal tissues. Thus, expression of the gut homing marker, chemokine receptor CCR9 was investigated. […] Retinoic acid (RA) was included as a positive control. RA is present in murine plasma at approximately […] and is predicted to exist at higher concentrations in tissue microenvironments in vivo. Thus, 1 uM was used as a conservative estimate of relevant physiological concentration. Indole's effect was even more profound than that of retinoic acid, a known inducer of mucosal homing markers on T cells (see, e.g., Iwata M, et al. (2004) Retinoic Acid Imprints Gut-Homing Specificity on T Cells. Immunity 21(4):527-538). […]

[2] = tested on: B220 (CD45R); assay: B220 surface expression on BMDCs; settings: BMDCs cultured from day 3 with indole (1 mM) or retinoic acid (1 μM)
Description: as §1
An indole-induced upregulation of the B220 (CD45R) antigen was also observed (FIGS. 12A and 12B), which is widely used to distinguish the plasmacytoid DC lineage and is believed to contribute to gut homing. However, more recently B220 has been reported to distinguish a DC subset more closely developmentally related to conventional rather than plasmacytoid DCs and a precursor to resident CD8+ and CD8− conventional DCs.

[3] = tested on: naïve CD4+CD25− T cells; assay: T cell activation in the presence of BMDC supernatant: Treg induction; settings: T cells on α-CD3/α-CD28 plates, 72 hours
Description: Specifically, naïve CD4+CD25− T cells were FACS-sorted and plated in 96-well, α-CD3 and α-CD28-coated tissue culture plates in a volume of 100 ul cell culture media. […] T cells with DC supernatant were cultured for 72 hours in the presence or absence of exogenous TGF-β. Subsequently, cells were stained for the transcription factor Foxp3 and analyzed by flow cytometry.
Naïve CD4+CD25− T cells were FACS-sorted as described above and plated in 96-well, αCD3 and αCD28-coated tissue culture plates in a volume of 100 ul cell culture media. An equal volume of spent BMDC supernatant was added, in the presence or absence of exogenous TGF-β, and T cells were cultured for 72 hours. To generate supernatants, day 3-treated BMDCs were collected on day 7, washed extensively and plated in a 48-well cell culture plate at 5×10^5 cells per well in 500 ul fresh complete media for 24 hours in the presence or absence of 1 ug/ml LPS. Plates were then centrifuged and supernatants were collected, filtered, and stored at −20° C. until use.

[4] = tested on: naïve CD4+CD25− T cells; assay: DC-T cell co-culture without cell contact (Transwell): Treg induction; settings: exogenous TGF-β added, 3 days
Description: Transwell tissue culture plates were used to perform co-cultures with a physical barrier between the two cell types. Naïve CD4+CD25− T cells were FACS-sorted and placed in the bottom of a 24-well Transwell cell culture plate with 0.4 uM polycarbonate membranes that had been coated with α-CD3 (5 ug/ml) and α-CD28 (2 ug/ml). TGF-β was added at the indicated concentrations. […] The T cell to DC ratio was 2:1, as in other co-culture experiments. After 3 days, T cells were stained for Foxp3 and analyzed by flow cytometry.
Naïve CD4+CD25− T cells were FACS-sorted and placed in the bottom of a 24-well Transwell cell culture plate with 0.4 uM polycarbonate membranes (Corning) that had been coated with 5 μg/mL αCD3 (BioXcell 145-2C11) and 2 μg/mL αCD28 (BioXcell 37.51). TGF-β was added at the indicated concentrations. The insert was placed in the well and washed, Day 3-treated BMDCs were added to the top chamber such that culture media was shared, but the cell types were kept physically separate. The T cell to DC ratio was 2:1, as in other co-culture experiments.

[5] = tested on: CCR9; assay: CCR9 induction on naïve T cells by conditioned DCs; settings: no exogenous RA in the co-culture
Description: FIG. 18 graphically illustrates that indole-conditioned DCs induce CCR9 on naïve T cells upon activation. Naïve CD4+CD25− T cells from OT-II mice were co-cultured with OVA323-339 peptide-loaded BMDCs for 72 hours in the presence of RA as indicated. BMDCs were previously treated with indole, RA, or DMF from day 3. Following 3 days of co-culture, surface staining was performed for flow cytometric analysis.
Based on the observation that indole induces gut homing markers on developing DCs, it was queried whether indole-conditioned DCs could also confer gut homing markers upon naïve CD4+ T cells. The antigen-specific T cell activation model was used to address this question, and a titration of RA was included as a positive control to induce CCR9. […] Just 10 nM of RA enabled indole-DC co-cultures to achieve over 50% of T cells expressing CCR9 which was similar to RA-DC positive controls, whereas DMF-DC co-cultures with the same concentration of RA added achieved only 10% of CCR9+ T cells.
Naïve CD4+CD25− T cells of spleen and lymph nodes from OT-II mice were isolated by negative selection via column purification using the Naïve CD4+ T Cell Isolation Kit (Miltenyi Biotec). Naïve CD4+ T cells (>96% pure) were labeled with Cell Proliferation Dye efluor450 (eBioscience) following manufacturer's instructions then co-cultured with OVA peptide-loaded BMDCs at a ratio of 2:1 for 72 hours in a 96-well round-bottom tissue culture plate. BMDCs were previously treated with indole or RA from day 3. On day 7, DCs were washed extensively prior to being loaded with OVA323-339 peptide (10 ug/ml) for 1 hour at 37° C. BMDCs were then washed three times and plated with naïve CD4+ T cells. RA or TGFβ were added to co-cultures as indicated. Following 3 days of culture, cells were stained with antibodies to CD4, CCR9, and LPAM-1 (α4β7). Intracellular staining for Foxp3 was performed using a Foxp3 staining kit (eBioscience). The remaining CD4+ helper T cell lineages Th1, Th2, and Th17 were identified by their cytokine production. […]

With CC1=C(/C=C/C(C)=C/C=C/C(C)=C/C(=O)O)C(C)(C)CCC1 [RA, all-trans retinoic acid, reference compound] the “surface expression of CCR9 on conditioned DCs” value [1] was 22%, the “B220 (CD45R) expression on BMDCs” value [2] was “does not induce B220” and the “Treg induction by supernatant of conditioned BMDCs relative to solvent control DCs” value [3] was “approximately 2 fold”. The “Treg induction by conditioned DCs without cell contact over solvent controls” value [4] was 3 fold and the “induction of CCR9 on naïve T cells by conditioned BMDCs alone” value [5] was “sufficient”.
